This is an account of results in ChEMBL document CHEMBL3886170, “Pyrrolo[3,2-c]pyridine tropomyosin-related kinase inhibitors” (2015).

Sequence of High affinity nerve growth factor receptor (P04629 whole entry, the tested form may be a part): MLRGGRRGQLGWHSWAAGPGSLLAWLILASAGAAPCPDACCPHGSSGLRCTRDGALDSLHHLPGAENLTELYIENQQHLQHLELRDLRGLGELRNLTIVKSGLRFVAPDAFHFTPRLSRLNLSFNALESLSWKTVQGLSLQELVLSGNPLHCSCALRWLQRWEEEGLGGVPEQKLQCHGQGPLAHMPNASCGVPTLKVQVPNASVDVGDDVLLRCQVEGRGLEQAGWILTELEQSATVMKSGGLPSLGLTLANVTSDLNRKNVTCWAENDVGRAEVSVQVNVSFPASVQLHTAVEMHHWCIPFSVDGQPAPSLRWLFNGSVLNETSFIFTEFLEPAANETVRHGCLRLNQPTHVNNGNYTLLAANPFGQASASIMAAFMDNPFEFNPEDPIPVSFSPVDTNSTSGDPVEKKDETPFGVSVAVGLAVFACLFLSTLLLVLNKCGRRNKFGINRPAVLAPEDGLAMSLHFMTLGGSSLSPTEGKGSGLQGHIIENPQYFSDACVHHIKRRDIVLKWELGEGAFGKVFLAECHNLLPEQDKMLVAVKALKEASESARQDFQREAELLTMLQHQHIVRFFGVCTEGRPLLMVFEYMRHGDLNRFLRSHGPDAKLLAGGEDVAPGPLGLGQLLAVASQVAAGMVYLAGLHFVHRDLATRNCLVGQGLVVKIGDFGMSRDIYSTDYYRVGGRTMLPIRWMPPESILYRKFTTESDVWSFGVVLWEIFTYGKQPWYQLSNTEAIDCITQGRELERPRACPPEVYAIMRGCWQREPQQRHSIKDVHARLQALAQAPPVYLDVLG

The assay has as its target High affinity nerve growth factor receptor (Homo sapiens, UniProt P04629). Nature of the assay: HTRF Assay: Isolated TRK Enzyme assays use the HTRF KinEASE-TK kit (Cisbio Cat#62TK0PEJ) with recombinant His-tagged cytoplasmic domains of each TRK receptor sourced from Invitrogen (see table below). […] A standard curve using the compound of Example 135 disclosed in WO2005/116035 of 150 uM is also prepared on each test plate. High percentage effect (HPE) is defined by 150 uM.
As usually defined, the IC50 is the concentration that inhibits the measured activity by half. Regarding `CC(C)(CO)n1cc(C(=O)c2cncc(NC(=O)Cn3cc(C4CC4)nn3)c2)c2cnccc21`, the IC50 was 12.4 nM. `CC(C)(CO)n1cc(C(=O)c2cncc(NC(=O)Cc3ccc(C#N)cc3)c2)c2cnccc21`: the IC50 was 9.54 nM.

As to `CC(C)(CO)n1cc(C(=O)c2cc(NC(=O)Cn3cc(C(F)(F)F)nn3)ccn2)c2cnccc21`, the 50% inhibitory concentration (IC50) is 79.3 nM.

For `CC(C)(CO)n1cc(C(=O)c2cncc(NC(=O)Cc3ccc(Cl)cc3)c2)c2cncc(F)c21`, the concentration for half-maximal inhibition (IC50) amounted to 6.53 nM.
